Experimental data taken from patent publication EP0419292A1, “Human tryptase-like protein” (TAISHO PHARMACEUTICAL CO. LTD, priority 1989, dated 1991).
“Also recorded” adds a separate entry of the source. Starred links: 1 amine or outer side, 2 acyl side, 3 side chain; linkers in the order of their positions; H or OH if unused. Non-standard residues stand in square brackets, D forms with d. Residues, ends and D or L forms follow the SMILES beside them. *: point of attachment. Sta = CC(C)C[C@H](N)[C@@H](O)CC(=O)O; Glutaryl = O=C(CCCC(=O)[*:2])[*:1]; AMC = Cc1cc(=O)oc2cc(N*)ccc12; Suc = O=C(CCC(=O)[*:2])[*:1]; Isovaleryl = CC(C)CC(=O)*; Boc = CC(C)(C)OC(=O)*

Tests used:
[1] = test system: human tryptase-like protein; experiment: Enzyme activity with fluorogenic substrates (substrate specificity); type: biochemical; conditions: for Activity: Substrate 100 µM, 0.1 M Tris-HCl pH 7.8, 25 mM calcium chloride; for %: activity relative to Boc-Gln-Gly-Arg-MCA (100), substrate 100 µM; for hydrolysis by human tryptase-like protein: trypsin-like or chymotrypsin-like activity
Protocol: Enzyme activity of the human tryptase-like protein during the course of purification or after purification was measured as follows. The enzyme sample was added to 0.1 M Tris-HCl buffer (pH 7.8) containing 25 mM calcium chloride and 100 µM of fluorogenic substrate. The fluorescence was measured with excitation and emmision wavelength of 380 nm and 460 nm, respectively. Effects of inhibitors on the enzyme activity were examined by adding 10 µM each of inhibitor to the reaction solution described above.

[2] = test system: human tryptase-like protein; experiment: Effects of inhibitors on the trypsin-like activity; type: biochemical; conditions: 10 µM inhibitor; for Inhibition (%) / Activity: substrate Boc-Gln-Gly-Arg-MCA; for Activity: control 843.1
Protocol: Enzyme activity of the human tryptase-like protein during the course of purification or after purification was measured as follows. The enzyme sample was added to 0.1 M Tris-HCl buffer (pH 7.8) containing 25 mM calcium chloride and 100 µM of fluorogenic substrate. The fluorescence was measured with excitation and emmision wavelength of 380 nm and 460 nm, respectively.
Effects of inhibitors on the trypsin-like activity of the human tryptase-like protein was examined using Boc-Gln-Gly-Arg-MCA as substrate.

Cc1cc(=O)oc2cc(NC(=O)[C@H](Cc3ccc(O)cc3)NC(=O)[C@@H](NC(=O)[C@H](CC(C)C)NC(=O)[C@H](CC(C)C)NC(=O)CCC(=O)O)C(C)C)ccc12 [Suc-Leu-Leu-Val-Tyr-MCA] (Suc-LLVY-{AMC})
Activity [1]: 244.1 µU/ml | % [1]: 32% | hydrolysis by human tryptase-like protein [1]: cleaves; also recorded: hydrolized most rapidly

Cc1cc(=O)oc2cc(NC(=O)[C@H](CCCNC(=N)N)NC(=O)[C@H](CCCNC(=N)N)NC(=O)CNC(=O)OC(C)(C)C)ccc12 [Boc-Gly-Arg-Arg-MCA]
Activity [1]: 44.4 µU/ml | % [1]: 6%

Cc1cc(=O)oc2cc(NC(=O)[C@H](CCCNC(=N)N)NC(=O)CNC(=O)CCCC(=O)O)ccc12 [Glt-Gly-Arg-MCA] (Glutaryl-Gly-Arg-{AMC})
Activity [1]: 332.8 µU/ml | % [1]: 44%

CC[C@H](C)[C@H](NC(=O)OC(C)(C)C)C(=O)N[C@@H](CCC(=O)O)C(=O)NCC(=O)N[C@@H](CCCNC(=N)N)C(=O)Nc1ccc2c(C)cc(=O)oc2c1 [Boc-Ile-Glu-Gly-Arg-MCA] (Boc-IEGR-{AMC})
Activity [1]: 355.0 µU/ml | % [1]: 47%

Cc1cc(=O)oc2cc(NC(=O)[C@H](Cc3ccccc3)NC(=O)[C@@H]3CCCN3C(=O)[C@H](C)NC(=O)[C@H](C)NC(=O)CCC(=O)O)ccc12 [Suc-Ala-Ala-Pro-Phe-MCA] (Suc-AAPF-{AMC})
Activity [1]: 110.9 µU/ml | % [1]: 15%

Cc1cc(=O)oc2cc(NC(=O)[C@H](CCCNC(=N)N)NC(=O)[C@H](C)NC(=O)[C@H](CCC(N)=O)NC(=O)OC(C)(C)C)ccc12 [Boc-Gln-Ala-Arg-MCA] (Boc-Gln-Ala-Arg-{AMC})
Activity [1]: 532.4 µU/ml | % [1]: 71%

CC(C)CCNC(=O)[C@H](CC(C)C)NC(=O)[C@H]1O[C@@H]1C(=O)O [E-64c]
Inhibition (%) [2]: 11% | Activity [2]: 754.4 µU/ml

Cc1cc(=O)oc2cc(NC(=O)[C@H](CCCNC(=N)N)NC(=O)[C@H](CCCNC(=N)N)NC(=O)[C@H](CCC(N)=O)NC(=O)OC(C)(C)C)ccc12 [Boc-Gln-Arg-Arg-MCA] (Boc-Gln-Arg-Arg-{AMC})
Activity [1]: 177.5 µU/ml | % [1]: 24%

CC(C)C[C@@H](N)[C@H](O)C(=O)N[C@H](C(=O)N[C@H](C(=O)N[C@@H](CC(=O)O)C(=O)O)C(C)C)C(C)C [Amastatin]
Inhibition (%) [2]: 9% | Activity [2]: 767.2 µU/ml

CC(C)C[C@H](NP(=O)(O)O[C@@H]1O[C@@H](C)[C@H](O)[C@@H](O)[C@H]1O)C(=O)N[C@@H](Cc1c[nH]c2ccccc12)C(=O)O [Phosphoramidone]
Inhibition (%) [2]: 3% | Activity [2]: 820.9 µU/ml

Cc1cc(=O)oc2cc(NC(=O)[C@H](CCCNC(=N)N)NC(=O)[C@H](Cc3ccccc3)NC(=O)[C@@H]3CCCN3)ccc12 [Pro-Phe-Arg-MCA] (H-Pro-Phe-Arg-{AMC})
Activity [1]: 155.3 µU/ml | % [1]: 21%

Cc1cc(=O)oc2cc(NC(=O)[C@H](CCCNC(=N)N)NC(=O)[C@H](CCCCN)NC(=O)CNC(=O)OC(C)(C)C)ccc12 [Boc-Gly-Lys-Arg-MCA] (Boc-Gly-Lys-Arg-{AMC})
Activity [1]: 177.5 µU/ml | % [1]: 24%

Cc1cc(=O)oc2cc(NC(=O)[C@H](CCCNC(=N)N)NC(=O)[C@H](CCCNC(=N)N)NC(=O)[C@H](CC(C)C)NC(=O)OC(C)(C)C)ccc12 [Boc-Leu-Arg-Arg-MCA] (Boc-Leu-Arg-Arg-{AMC})
Activity [1]: 110.9 µU/ml | % [1]: 15%

Cc1cc(=O)oc2cc(NC(=O)[C@H](CCCNC(=N)N)NC(=O)[C@@H]3CCCN3C(=O)[C@@H](NC(=O)OC(C)(C)C)C(C)C)ccc12 [Boc-Val-Pro-Arg-MCA] (Boc-Val-Pro-Arg-{AMC})
Activity [1]: 66.6 µU/ml | % [1]: 9%

Cc1cc(=O)oc2cc(NC(=O)[C@H](CCCCN)NC(=O)[C@H](CCCCN)NC(=O)[C@H](CCC(=O)O)NC(=O)OC(C)(C)C)ccc12 [Boc-Glu-Lys-Lys-MCA] (Boc-Glu-Lys-Lys-{AMC})
Activity [1]: 221.9 µU/ml | % [1]: 29%

CC(C)CC(=O)N[C@H](C(=O)N[C@H](C(=O)N[C@@H](CC(C)C)[C@@H](O)CC(=O)N[C@@H](C)C(=O)N[C@@H](CC(C)C)[C@@H](O)CC(=O)O)C(C)C)C(C)C [Pepstatin] (Isovaleryl-VV[Sta]A[Sta]-OH)
Inhibition (%) [2]: 0% | Activity [2]: 845.0 µU/ml

CC(C)C[C@H](NC(=O)N[C@H](C(=O)N[C@@H](CCC(N)=O)C(=O)N[C@@H](C)C=O)[C@@H]1CCNC(=N)N1)C(=O)O [Elastatinal]
Inhibition (%) [2]: 16% | Activity [2]: 710.0 µU/ml

Cc1cc(=O)oc2cc(NC(=O)[C@H](CCCNC(=N)N)NC(=O)[C@H](CO)NC(=O)[C@H](Cc3ccccc3)NC(=O)OC(C)(C)C)ccc12 [Boc-Phe-Ser-Arg-MCA] (Boc-Phe-Ser-Arg-{AMC})
Activity [1]: 177.5 µU/ml | % [1]: 24%

O=S(=O)(F)Cc1ccccc1 [PMSF, phenylmethylsulfonyl fluoride]
Inhibition (%) [2]: 13% | Activity [2]: 732.2 µU/ml

CC(C)C[C@H](NC(=O)[C@@H](NC(=O)N[C@@H](Cc1ccccc1)C(=O)O)[C@@H]1CCN=C(N)N1)C(=O)N[C@H](C=O)Cc1ccccc1 [Chymostatin]
inhibition of trypsin-like activity [2]: inhibited | Inhibition (%) [2]: 47% | Activity [2]: 443.8 µU/ml

Cc1cc(=O)oc2cc(NC(=O)[C@H](CCCNC(=N)N)NC(=O)CNC(=O)[C@H](CCC(N)=O)NC(=O)OC(C)(C)C)ccc12 [Boc-Gln-Gly-Arg-MCA] (Boc-Gln-Gly-Arg-{AMC})
Activity [1]: 754.4 µU/ml | % [1]: 100% | hydrolysis by human tryptase-like protein [1]: cleaves; also recorded: hydrolyzed most rapidly

CC(=O)N[C@@H](CC(C)C)C(=O)N[C@@H](CC(C)C)C(=O)N[C@H](C=O)CCCNC(=N)N [Leupeptin]
inhibition of trypsin-like activity [2]: inhibited; also recorded: strongly inhibited | Inhibition (%) [2]: 87% | Activity [2]: 110.9 µU/ml

N-tosyl-L-phenylalanine chloromethyl ketone [TPCK]
Inhibition (%) [2]: 16% | Activity [2]: 708.2 µU/ml

Cc1cc(=O)oc2cc(NC(=O)[C@H](CCCNC(=N)N)NC(=O)[C@@H](NC(=O)[C@H](CC(C)C)NC(=O)OC(C)(C)C)[C@@H](C)O)ccc12 [Boc-Leu-Thr-Arg-MCA] (Boc-Leu-Thr-Arg-{AMC})
Activity [1]: 110.9 µU/ml | % [1]: 15%

N=C(N)c1ccccc1 [Benzamidine]
Inhibition (%) [2]: 3% | Activity [2]: 817.8 µU/ml

Cc1ccc(S(=O)(=O)N[C@@H](CCCCN)C(=O)CCl)cc1 [TLCK, Nα-p-tosyl-L-lysine chloromethyl ketone]
Inhibition (%) [2]: 18% | Activity [2]: 691.3 µU/ml

Cc1cc(=O)oc2cc(NC(=O)[C@H](CCCNC(=N)N)NC(=O)[C@@H]3CCCN3C(=O)CNC(=O)[C@H](C)NC(=O)OC(C)(C)C)ccc12 [Boc-Ala-Gly-Pro-Arg-MCA] (Boc-AGPR-{AMC})
Activity [1]: 199.7 µU/ml | % [1]: 26%

CC(C)C[C@H](NC(=O)[C@@H](O)[C@H](N)Cc1ccccc1)C(=O)O [Bestatin]
Inhibition (%) [2]: 0% | Activity [2]: 843.0 µU/ml
